Measurements from publication PMC5355877, “The development of novel LTA4H modulators to selectively target LTB4 generation” (Scientific Reports, 2017).
Values joined by “and” are separate entries in the source; they are usually repeats but may differ in a detail not shown here. Identical values can stand only once. Like-named read-outs stand apart in the source and are kept apart here. Each block holds one molecule with its values, some of them ahead of it.

Legend:
[1] = target: T1, recombinant human LTA4H (aminopeptidase, PGP substrate) (Homo sapiens, UniProt P09960); test: LTA4H aminopeptidase activity: PGP degradation by recombinant human LTA4H; format: biochemical
T1 construct: purchased Cayman Chemicals
T1 sequence (P09960 1-611): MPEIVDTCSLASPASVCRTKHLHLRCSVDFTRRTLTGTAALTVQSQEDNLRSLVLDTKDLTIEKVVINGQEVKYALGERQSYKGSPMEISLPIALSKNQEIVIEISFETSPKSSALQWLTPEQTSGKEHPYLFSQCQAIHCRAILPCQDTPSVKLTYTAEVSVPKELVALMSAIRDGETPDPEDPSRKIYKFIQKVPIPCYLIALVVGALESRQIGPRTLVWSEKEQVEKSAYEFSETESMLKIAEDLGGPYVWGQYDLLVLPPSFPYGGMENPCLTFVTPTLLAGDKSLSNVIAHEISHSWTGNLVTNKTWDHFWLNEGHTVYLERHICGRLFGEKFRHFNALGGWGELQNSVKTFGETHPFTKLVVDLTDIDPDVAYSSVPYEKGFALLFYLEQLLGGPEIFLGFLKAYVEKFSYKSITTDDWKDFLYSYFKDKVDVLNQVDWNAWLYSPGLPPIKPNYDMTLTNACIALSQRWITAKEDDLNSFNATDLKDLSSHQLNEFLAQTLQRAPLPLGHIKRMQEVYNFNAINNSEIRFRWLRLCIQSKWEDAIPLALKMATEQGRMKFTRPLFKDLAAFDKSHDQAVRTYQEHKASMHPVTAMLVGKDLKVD
Description: For peptide quantification in serum, PGP and AcPGP were measured using a MDS Sciex API-4000 spectrometer (Applied Biosystems, Foster City, CA) equipped with a Shimadzu HPLC (Columbia, MD). For peptide quantification from degradation experiments, PGP and AcPGP were measured using a Thermo Accela Pump and Autosampler coupled to a Thermo TSQ Quantum Access. […] Peak area was measured, and PGP/AcPGP peptide concentrations were calculated using a relative standard curve method as previously described.
Mouse serum (diluted 1/10 in PBS) or recombinant human LTA4H (0.1 μg/ml; Cayman Chemicals, Michigan, USA) were incubated with 0.4 mM PGP at 37 °C in 5% CO2 for varying periods of time. Concentrations of PGP remaining were subsequently quantified by ESI-LC/MS/MS (as discussed above) by comparison with PGP standards. The percentage of peptide degraded was determined relative to control samples of 0.4 mM PGP alone. PGP degradation was also assessed by measurement of free proline released and its ensuing reaction with Ninhydrin (as discussed below). Test compounds were assayed in a blinded manner by an investigator during determination of the effect on LTA4H aminopeptidase activity.
To assess free proline liberated, aliquots from PGP degradation experiments were diluted 1 in 10 in PBS (to a final volume of 250 μl). Glacial acetic acid (250 μl) was then added, followed by 250 μl of ninhydrin solution (25 mg/ml in acetic acid/6 M phosphoric acid; heated at 70 °C to dissolve). The reaction mixture was heated at 100 °C for 60 minutes, allowed to cool to room temperature and the proline containing fraction extracted with 500 μl of toluene and optical density measured at 520 nm.

[2] = tested on: LTA4H (PGP degradation); set-up: method as in PMID 24591641; conditions: concentration of 100 μM; 5 μg/ml LTA4H; cited from earlier work
[3] = target: T2, LTA4H epoxide hydrolase activity (LTB4 generation) (Mus musculus, UniProt P24527); test: LTA4H epoxide hydrolase activity: LTB4 generation by A23187-treated murine bone marrow neutrophils (EIA); format: cell-based; conditions: for IC50: LTB4 generation, murine neutrophils, read-out: Epoxide Hydrolase IC50 ± SEM
T2 construct: endogenous in cells; host or cells: murine bone marrow neutrophils
T2 sequence (P24527 1-611): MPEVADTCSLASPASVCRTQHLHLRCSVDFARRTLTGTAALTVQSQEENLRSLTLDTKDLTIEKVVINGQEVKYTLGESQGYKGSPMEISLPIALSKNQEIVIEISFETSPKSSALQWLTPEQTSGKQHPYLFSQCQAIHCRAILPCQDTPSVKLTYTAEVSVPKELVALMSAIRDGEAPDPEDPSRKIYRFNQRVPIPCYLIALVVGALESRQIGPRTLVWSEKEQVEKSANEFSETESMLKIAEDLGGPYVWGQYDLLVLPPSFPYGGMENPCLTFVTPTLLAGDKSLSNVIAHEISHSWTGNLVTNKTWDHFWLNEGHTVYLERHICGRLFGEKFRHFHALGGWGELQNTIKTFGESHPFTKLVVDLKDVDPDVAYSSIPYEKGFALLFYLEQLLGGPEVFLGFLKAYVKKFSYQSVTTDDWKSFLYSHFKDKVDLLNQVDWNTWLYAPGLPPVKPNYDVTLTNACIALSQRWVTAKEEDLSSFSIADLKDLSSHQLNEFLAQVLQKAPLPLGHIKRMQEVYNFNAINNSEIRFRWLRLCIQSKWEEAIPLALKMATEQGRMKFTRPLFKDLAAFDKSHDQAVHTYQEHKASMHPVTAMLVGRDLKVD
Description: To isolate murine bone marrow neutrophils, the femur and the tibia from both hind legs were removed and freed of soft tissue attachments, and the extreme distal tip of each extremity cut off. HBSS containing 15 mM EDTA and 30 mM HEPES was forced through the bone with a syringe. After dispersing cell clumps and passage through a […] sieve (BD labware, New Jersey), red blood cells were lysed by resuspending pellets in ACK buffer (for 3 minutes at room temperature) before centrifugation (800 × g, 5 min) and washing with HBSS. The cell suspension was centrifuged (800 × g, 5 min, 4 °C) and resuspended in RPMI.
(§1) 1% DMSO was used as a control. Cells were incubated for 20 minutes at 37 °C, and the reaction was terminated by centrifugation (600 × g, 5 min, 4 °C). Supernatants were removed and stored at −80 °C for subsequent LTB4 analysis. The concentration of LTB4 generated in the epoxide hydrolase activity assay was assayed using an EIA, according to manufacturer’s directions (R&D systems, Minneapolis, MN). Test compounds were assayed in a blinded manner by an investigator during determination of effect on LTA4H epoxide hydrolase activity.

[4] = tested on: LTB4 production by neutrophils; set-up: method as in PMID 24591641; conditions: cited from earlier work
[5] = Mouse plasma protein binding; format: in vitro ADME
Excerpt: (§2) ARM1 (4-(4-benzylphenyl)-1,3-thiazole-2-amine), compound 11 (7-hydroxy-3-(4-hydroxyphenyl)-4H-chromen-4-one) and compound 13 (7-hydroxy-3-phenyl-4H-chromen-4-one) were all purchased from VitasMLab (Kowloon, Hong Kong). […] All other compounds were custom synthesized by Peakdale Molecular as described in Supplementary Information. ADMET (absorption, distribution, metabolism, and excretion – toxicity) studies were also outsourced to Peakdale Molecular.

[6] = Human liver microsome stability; format: in vitro ADME; conditions: liver microsomes
Excerpt: as §2

[7] = target: T3, LTA4H epoxide hydrolase activity (LTB4 generation) (Homo sapiens, UniProt P09960); test: LTB4 generation by human blood-derived neutrophils; format: cell-based; conditions: preliminary data, blood-derived neutrophils from two distinct donors
T3 construct: endogenous in cells; host or cells: human peripheral blood neutrophils from healthy volunteers
T3 sequence (P09960 1-611): T1 sequence (P09960 1-611)
Description: To isolate human neutrophils, peripheral blood was taken from healthy volunteers following informed consent and according to an approved protocol. Neutrophils were subsequently isolated using the MACSxpress™ Neutrophil Isolation Kit (Miltenyi Biotec, UK).
as §1, with “1 × 10^5 murine bone marrow-derived neutrophils or human blood-derived neutrophils (compound 9 only) in 100 μl of RPMI were treated with A23187 at a final concentration of 20 μg/ml. 1%” for “1%”

[8] = logD pH7.4; format: physicochemical; conditions: pH 7.4; read-out: logDpH7.4
Excerpt: as §2

[9] = Mouse liver microsome stability; format: in vitro ADME; conditions: liver microsomes
Excerpt: as §2

[10] = Human plasma protein binding; format: in vitro ADME
Excerpt: as §2

[11] = set-up: method as in PMID 12540402; conditions: metabolic stability reported; cited from earlier work

Compound: Nc1nc(-c2ccc(Cc3ccccc3)cc2)cs1 [ARM1, 4-(4-benzylphenyl)-1,3-thiazole-2-amine, reference compound]
IC50 ([1]; PGP degradation, recombinant LTA4H, Table 1, read-out: Aminopeptidase IC50 ± SEM): 9.11 µM | IC50 ([1]; read-out: IC50 for inhibiting PGP degradation): ~9.1 µM | inhibition of PGP degradation at 100 μM [2]: no inhibition | IC50 ([3]; Table 1): 0.6 ± 0.0662 µM | IC50 [4]: 0.5 µM and ~0.5 µM

fraction unbound [5]: 0.0213 | microsomal CLint [6]: 59.5 µL/min/mg | half-life ([6]; read-out: Human liver microsomes t1/2): 11.7 min | IC50 ([1]; PGP degradation, Table 2, read-out: Aminopeptidase IC50 ± SEM): > 100 µM | inhibition of PGP degradation at 100 μM ([1]; concentration of 100 μM): no inhibition | IC50 [7]: 2.4 µM | IC50 ([3]; Table 2): 0.5 ± 0.04 µM | augmentation of LTB4 inhibitory capacity ([3]; relocation of hydroxyl to R3-position, relative to compound 6): 10 fold | logD [8]: 2.25 ± 0.1 | microsomal CLint [9]: 466 ± 100 µL/min/mg | half-life ([9]; read-out: Mouse liver microsomes t1/2): 1.5 min | fraction unbound [10]: 0.0225
Compound: COc1cc(O)cc(CCc2ccccc2O)c1 [Compound 9]

Compound: O=c1c(-c2ccc(O)cc2)coc2cc(O)ccc12 [Compound 11, 7-hydroxy-3-(4-hydroxyphenyl)-4H-chromen-4-one]
t1/2 [11]: 465 ± 21.6 min | IC50 ([1]; PGP degradation, Table 3, read-out: Aminopeptidase IC50 ± SEM): > 100 µM | IC50 ([3]; Table 3): 15 ± 2.3 µM
